Consider two molecules from patent US20230218618A1, “ADMINISTRATION OF SUMO-ACTIVATING ENZYME INHIBITOR AND ANTI-CD38 ANTIBODIES” (MILLENNIUM PHARMACEUTICALS, INC., priority 2020, published 2023).

Assay [1] concerns LP-1 human multiple myeloma cell line. Briefly: Study 3: LP-1 xenograft human multiple myeloma subcutaneous tumor model. The note with it: for GRI%: vs vehicle. In kind it is in vivo, CB17 SCID mice. The protocol: (§1) Low tumor volumes can cause problems with the data analysis, so all measurements below 25 cubic mm (including 0 values) were excluded from the analysis. After this exclusion step, the tumor volume was assumed to follow an exponential growth model. More specifically, for a given animal and treatment group,
(§2) Pairwise comparisons were performed, where the mean growth rates were compared for various pairs of treatment conditions. The results were summarized using the growth rate inhibition (GRI). Suppose µT and µC are the mean tumor growth rates for the treatment and reference groups, respectively. Define
(§3) Here, µAB, µA, µB, and µControl are the mean growth rates for the combination, drug A, drug B, and control groups, respectively. As before, µv is the mean tumor growth rate for the vehicle group, which in most cases is the same as the control group. The standard error of the synergy score was calculated as the square root of the sum of squared standard errors across the four groups. The degrees of freedom were estimated using the Welch-Satterthwaite equation. A hypothesis test was performed to determine if the synergy score differed from 0. P-values were calculated by dividing the synergy score by its standard error and tested against a t-distribution (two-tailed) with the above-calculated degrees of freedom. A P value of less than 0.05 is statistically significant.
(§4) The combination results can be interpreted as follows. Statistically significant negative synergy scores indicate a synergistic combination (“Syn.”). Statistically significant positive synergy scores indicate a sub-additive combination (“Sub-add.”) when the combination performs better (i.e. has a lower growth rate) than the best performing single agent. Statistically significant positive synergy scores indicate an antagonistic combination (“Antag.”) when the combination performs worse than the best performing single agent. Scores that are not statistically significant should be considered additive (“Add.”).
LP-1 is a human multiple myeloma cell line. A LP-1 human xenograft tumor model was generated by subcutaneous inoculation with […] LP-1 cells (cell suspension) in 7 weeks old female CB17 SCID mice (Charles River Laboratories, 251 Ballardvale St., Wilmington, MA) in the flank. When the mean tumor volume reached approximately 100 mm^3, the animals were randomized into one vehicle control and seven treatment groups (n=8/group). Mice were then dosed with 20% HPβCD or Compound I-263a or daratumumab over a 35-day period. Tumor growth and body weight were measured twice per week during the treatment and post-treatment periods, and mice were humanely euthanized once they had reached their humane endpoint.
A 0.75 mg/mL stock solution of I-263a was formulated weekly in 20% HPβCD and administered IV based on an average body weight using a 0.2 mL dosing volume. Final dose I-263a received was 7.5 mg/kg. I-263a was administered on a BIW schedule for 5 weeks (Days 1, 4, 8, 11, 15, 18, 22, 25, 29 and 33). Daratumumab (anti-CD38 antibody) (Myoderm Medical Supplies, 48 E Main St., Norristown, PA 19401) was purchased at the beginning of the study and stored at 4° C. according to manufacturer’s instructions. Final dose daratumumab received was 2.5 mg/kg, 7.5 mg/kg, and 20 mg/kg based on average body weight. Daratumumab was administered intraperitoneally (IP) using a 0.1 mL dosing volume, on a BIW schedule for 5 weeks (Days 1, 4, 8, 11, 15, 18, 22, 25, 29 and 33).
Tumors were measured twice weekly using Vernier calipers. Tumor volumes were calculated using standard equation: V = W^2 × L/2, where V = volume, W = width, and L = length for the tumor. When mean tumor volumes reached approximately 100 mm^3, mice were randomized into control and treatment groups. Mice were randomized into 8 groups (n=8/group) and dosed with vehicle (20% HPβCD), I-263a, daratumumab, or the combination of I-263a plus daratumumab at doses and schedules as described above. […]
For orientation: Xenograft models place foreign cells or tissue in a host animal.

Assay [2] relates to Daudi human Burkitt’s Lymphoma cell line. The experiment in a line: Study 7: Daudi xenograft human Burkitt's lymphoma subcutaneous tumor model (daratumumab or AB79). In kind it is in vivo, CB17 SCID mice. As to conditions: for GRI%: vs vehicle; for Tumor growth relative to vehicle-treated tumors (pairwise comparison): each agent 7.5 mg/kg BIW, I-263a p = 0.105, daratumumab p < 0.001, AB79 p = 0.002, both combinations p < 0.001, data up to Day 22. As for the experimental part: as §1, §2, §3, §4
Daudi is a human Burkitt’s Lymphoma cell line. A Daudi human xenograft tumor model was generated by subcutaneous inoculation with 2.0 × 10^6 Daudi cells (cell suspension) in 7 weeks old female CB17 SCID mice (Charles River Laboratories, 251 Ballardvale St., Wilmington, MA) in the flank. When the mean tumor volume reached approximately 110 mm3, the animals were randomized into one vehicle control and six treatment groups (n=8/group). Mice were then dosed with 20% HPβCD or Compound I-263a and/or daratumumab or AB79 over a 21-day period. Tumor growth and body weight were measured twice per week during the treatment and post-treatment periods, and mice were humanely euthanized once they had reached their humane endpoint.
A 0.75 mg/mL stock solution of I-263a was formulated weekly in 20% HPβCD and administered intravenously (IV) based on an average body weight using a 0.2 mL dosing volume. Final doses of I-263a received were 7.5 mg/kg. I-263a was administered on a BIW schedule for 3 weeks (Days 1, 4, 8, 11, 15, and 18). Daratumumab (anti-CD38 antibody) (Myoderm Medical Supplies, 48 E Main St., Norristown, PA 19401) was purchased at the beginning of the study and stored at 4° C. according to manufacturer’s instructions. Final dose of daratumumab received was 7.5 mg/kg based on average body weight. Daratumumab was administered intraperitoneally (IP) using a 0.1 mL dosing volume, on a BIW schedule for 3 weeks (Days, 1, 4, 8, 11, 15, and 18). AB79 was formulated on the day of dosing in 0.9% saline and administered intraperitoneally (IP) using a 0.1 mL dosing volume, on a BIW schedule for 3 weeks (Days, 1, 4, 8, 11, 15, and 18). Final dose of AB79 was 7.5 mg/kg based on average body weight.
Tumors were measured twice weekly using Vernier calipers. Tumor volumes were calculated using standard equation: V = W2 × L/2, where V = volume, W = width, and L = length for the tumor. […]

The mark [3] stands for this setting: I-263a 7.5 mg/kg BIW 5 weeks (p < 0.01), daratumumab 20 mg/kg (p < 0.01), I-263a 7.5 mg/kg BIW with daratumumab 2.5, 7.5 or 20 mg/kg (p < 0.001).

Consider “Daratumumab: immunoglobulin G1 kappa (IgG1κ) human monoclonal antibody against CD38 antigen”, for which the “Tumor volume on Day 17 (± SEM)” value in assay [1] (Daratumumab 2.5 mg/kg BIW IP) was 988.8 ± 183.4; in assay [1] (Daratumumab 7.5 mg/kg BIW IP), 1204.8 ± 190.1; in assay [1] (Daratumumab 20 mg/kg BIW IP) it was 1078 ± 207.7. Further, the GRI% was determined as 16% in assay [1] (Daratumumab 2.5 mg/kg BIW IP), 8% in assay [1] (Daratumumab 7.5 mg/kg BIW IP), 10% in assay [1] (Daratumumab 20 mg/kg BIW IP) and 31% in assay [2] (Daratumumab 7.5 mg/kg BIW IP). Besides, the “Tumor growth compared to vehicle treated mice (pairwise comparison)” value in assay [1] (setting [3]) was “significant tumor growth inhibition”; in assay [1] (daratumumab 2.5 mg/kg or 7.5 mg/kg single agent, p > 0.05), “not significantly different from vehicle treated mice”. Moreover, the “Tumor Volume on Day 22 (±SEM)” value in assay [2] (Daratumumab 7.5 mg/kg BIW IP) was 1004.9 (±97.1). In addition, in assay [2], the “Tumor growth relative to vehicle-treated tumors (pairwise comparison)” value is reported as “tumor growth inhibition”.

Take `Cc1sc(C(=O)c2cncnc2N[C@@H]2C[C@H](COS(N)(=O)=O)[C@@H](O)C2)cc1[C@@H]1NCCc2ccc(Cl)cc21` [Compound I-263a, [(1R,2S,4R)-4-{[5-({4-[(1R)-7-chloro-1,2,3,4-tetrahydroisoquinolin-1-yl]-5-methyl-2-thienyl}carbonyl)pyrimidin-4-yl]amino}-2-hydroxycyclopentyl]methyl sulfamate]: the “Tumor growth compared to vehicle treated mice (pairwise comparison)” value in assay [1] (setting [3]) was “significant tumor growth inhibition”. In assay [1] (I-263a 7.5 mg/kg BIW IV), the “Tumor volume on Day 17 (± SEM)” value is listed as 1043.3 ± 260.1 and the GRI% was 15%. For the same molecule, in assay [2] (I-263a 7.5 mg/kg BIW IV), the “Tumor Volume on Day 22 (±SEM)” value was 1305 (±83.6) and the GRI% turned out to be 13%. Further, the “Tumor growth relative to vehicle-treated tumors (pairwise comparison)” value in assay [2] is “tumor growth inhibition”.
